Columns and labels:
[1] = test system: Namalwa cells; experiment: Cell cycle analysis of Namalwa cells treated with LB-100; format: cell-based
Method: FIG. 1 is a bar graph showing percent of Namalwa cells in G1 arrest 24 hours after treatment with 0.1 μM, 1.0 μM or 10 μM LB-100 dissolved in DMSO (grey) or MSG (black) compared to control and vehicle.
FIG. 2 is a bar graph showing percent of Namalwa cells in G1 arrest 24 hours after treatment with 0.1 μM, 1.0 μM or 10 μM LB-100 compared to control.
Namalwa cells were treated with LB-100 dissolved in DMSO or MSG.

[2] = test system: Namalwa cells; experiment: Apoptosis in cell lines (Namalwa), flow cytometry; format: cell-based; conditions: 10 μM, dissolved in MSG
Method: FIG. 3 is a bar graph showing percentage of Namalwa cells undergoing apoptosis after treatment with 0.1 μM, 1.0 μM or 10 μM LB-100 dissolved in DMSO (grey) or MSG (black) compared to control and vehicle.
FIGS. 4A to 4D are a series of flow cytometry plots showing percentage of Namalwa cells undergoing apoptosis after treatment with control (FIG. 4A), 0.1 μM (FIG. 4B), 1.0 μM (FIG. 4C), or 10 μM (FIG. 4D) LB-100.

[3] = test system: del(5q) patient BM MNCs; experiment: Apoptosis in patient cells, del(5q); format: cell-based
Method: FIG. 6 is a bar graph showing percentage of primary BM MNCs from a Del(5q) patient undergoing apoptosis after treatment with 0.1 μM, 1.0 μM, or 10 μM lenalidomide (grey) or 0.1 μM, 1.0 μM, or 10 μM LB-100 (black), compared to a control.

[4] = test system: Non-del(5q) patient BM MNCs; experiment: Apoptosis in patient cells, non-del(5q); format: cell-based; conditions: FIG. 5
[5] = test system: HL60 cells; experiment: MTT assay, proliferation of HL60 cells; format: cell-based; conditions: 72 hours, versus lenalidomide, significant difference at 1 μM (FIG. 7A)
Method: (§1) FIG. 7A is a graph showing proliferation of HL60 cells 72 hours after treatment with 0.001 μM, 0.01 μM, 0.1 μM, 1.0 μM, 10 μM, or 100 μM LB-100 (grey) or 0.001 μM, 0.01 μM, 0.1 μM, 1.0 μM, 10 μM, or 100 μM lenalidomide (black), compared to control or vehicle. FIGS. 7B to 7C are graphs showing proliferation of Namalwa cells 72 hours after treatment with 0.001 μM, 0.01 μM, 0.1 μM, 1.0 μM, 10 μM, or 100 μM LB-100 (♦), 0.001 μM, 0.01 μM, 0.1 μM, 1.0 μM, 10 μM, or 100 μM lenalidomide (▪), or 0.001 μM, 0.01 μM, 0.1 μM, 1.0 μM, 10 μM, or 100 μM, cantharidin (▴), compared to control or vehicle.
(§2) HL60 cells and U937 cells were compared (FIGS. 8A and 8B).

[6] = test system: Namalwa cells; experiment: MTT assay, proliferation of Namalwa cells; format: cell-based; conditions: 72 hours, versus control (FIGS. 7B and 7C)
Method: as §1, §2

[7] = test system: del(5q) MDS; experiment: Additional studies of LB-100 efficacy in del(5q) MDS; format: in vivo
Method: (§3) Additional studies, similar to the aforementioned Phase I design, are conducted to evaluate the efficacy of LB-100, alone or in combination with lenalidomide, in patients with del(5q) MDS or non-del(5q) MDS.
An amount of LB-100 is administered to a subject afflicted with del(5q) MDS. […] An amount of LB-100 in combination with lenalidomide is administered to a subject afflicted with del(5q) MDS.

[8] = test system: non-del(5q) MDS; experiment: Additional studies of LB-100 efficacy in non-del(5q) MDS; format: in vivo
Method: as §3
An amount of LB-100 is administered to a subject afflicted with non-del(5q) MDS. […] An amount of LB-100 in combination with lenalidomide is administered to a subject afflicted with non-del(5q) MDS.

[9] = test system: MDS that is resistant to lenalidomide; experiment: Additional studies of LB-100 efficacy in lenalidomide-resistant MDS; format: in vivo; conditions: LB-100 or LB-100 in combination with lenalidomide
Method: as §3

[10] = test system: del(5q) MDS; conditions: cited from earlier work
[11] = test system: non-del (5q) MDS; conditions: cited from earlier work
[12] = molecular target: protein phosphatase 2A (Homo sapiens, UniProt P67775); conditions: cited from earlier work
[13] = LB-100 in combination with lenalidomide

Chain of protein phosphatase 2A (P67775 whole entry): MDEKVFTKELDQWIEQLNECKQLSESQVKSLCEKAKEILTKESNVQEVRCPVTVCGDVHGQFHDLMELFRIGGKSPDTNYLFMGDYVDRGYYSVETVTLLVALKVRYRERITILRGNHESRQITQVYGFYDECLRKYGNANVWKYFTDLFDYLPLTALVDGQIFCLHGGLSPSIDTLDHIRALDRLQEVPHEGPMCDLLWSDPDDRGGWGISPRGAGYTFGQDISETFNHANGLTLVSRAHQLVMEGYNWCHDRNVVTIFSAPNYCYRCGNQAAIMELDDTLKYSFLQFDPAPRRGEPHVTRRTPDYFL

CN1CCN(C(=O)C2C(C(=O)O)[C@H]3CC[C@@H]2O3)CC1 (stereo partly drawn) [LB100]
G1 arrest, dose dependence (in words) ([1]; Table 2, FIG. 2): led to G1 arrest in a dose-dependent fashion | G1 arrest (in words) ([1]; dissolved in DMSO or MSG (Table 1, FIG. 1)): led to G1 arrest at 1 and 10 μM in MSG and at 10 μM in DMSO | Apoptosis (in words) [2]: led to apoptosis at 10 μM | Apoptosis (in words) ([3]; 1 μM): mild increase in apoptosis | Cytotoxicity compared with lenalidomide (in words) ([3]; 10 μM): more cytotoxic than lenalidomide | Apoptosis (in words) ([3]; 0.1, 1.0, 10 μM (FIG. 6)): induced apoptosis in a dose dependent fashion | Apoptosis (in words) [4]: did not lead to apoptosis | Proliferation (in words) [5]: significant decreased proliferation in comparison to treatment with lenalidomide | Proliferation (in words) [6]: significant decrease in proliferation in comparison to control | Efficacy (in words) ([7]; LB-100 alone): effective to treat the del(5q) MDS | Efficacy (in words) [7, 13]: effective to treat the del(5q) MDS | Efficacy (in words) ([8]; LB-100 alone): effective to treat the non-del(5q) MDS | Efficacy (in words) [8, 13]: effective to treat the non-del(5q) MDS | Efficacy (in words) [9]: effective to treat the MDS

Nc1cccc2c1CN(C1CCC(=O)NC1=O)C2=O (stereo not drawn) [Lenalidomide, lenalidomide]
transfusion independence (TI), share of patients ([10]; lower risk MDS patients with del(5q)): 67% | median duration of response ([10]; patients with del5q MDS): 2.5 years | transfusion independence (TI), share of patients [11]: 26%

C=C1[C@@H](O)[C@@H]2O[C@]3(CC[C@H](/C=C/[C@@H](C)[C@@H]4CC(C)=C[C@@]5(O[C@H](C[C@@](C)(O)C(=O)O)CC[C@H]5O)O4)O3)CC[C@H]2O[C@@H]1[C@@H](O)C[C@H](C)[C@H]1O[C@@]2(CCCCO2)CC[C@H]1C [Okadaic acid, 9,10-Deepithio-9,10-didehydroacanthifolicin]
Selectivity over PP2B, PP2C and other phosphatases (in words) [12]: highly selective over PP2B, PP2C and a range of other phosphatases

Source: patent publication US10434100B2, “Protein phosphatase 2A inhibitors for treating myelodysplastic syndromes” (priority 2014, dated 2019)
